# Results from patent US20050136444A1 (priority 2003, published 2005).
# Counter-ions that a name gives are not always drawn.
# Tested on: Hot Plate Test
# Assay: 52° C. hot plate test after systemic administration
# Type: in vivo, rat
# Conditions: rats, 10 mg/kg i.p., vs vehicle
# Method: Rats were injected with either vehicle or 10 mg/kg Compound 2616 (i.p.) and then assessed for possible changes in sensitivity to a noxious thermal stimulus using the 52° C. hot plate test.
structure (smiles),measurement,value
"NC(N)=NN=Cc1ccc(-c2ccccc2C(F)(F)F)o1 (racemic) [Compound 2616, 1-[(5-(2-(Trifluoromethyl)phenyl)-furan-2-yl)-methyleneamino]guanidine Hydrochloride]",hot plate latency (thermal hyperalgesia),produced a significant reduction in the hot plate latency
